Reference: PubChem BioAssay AID825 (PCMD, 2007)
Inconclusive results are not listed. Calls of active or inactive are those of the source. The rule behind the calls is not given here.

Target: Procathepsin L (Homo sapiens) (UniProt P07711)
Test: IC50 of CTSL protease blockers – biochemical, confirmation, dose response (AID 825)
Details: purified cathepsin L enzyme activity, signal read-out

Chain of Procathepsin L (Homo sapiens) (P07711 114-288 limits assumed): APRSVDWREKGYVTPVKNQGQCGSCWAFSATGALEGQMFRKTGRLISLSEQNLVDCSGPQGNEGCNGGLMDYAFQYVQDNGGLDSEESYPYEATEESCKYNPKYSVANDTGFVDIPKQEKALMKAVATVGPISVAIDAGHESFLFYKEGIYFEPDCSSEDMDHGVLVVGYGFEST
Chain of Procathepsin L (Homo sapiens) (P07711 292-333 limits assumed): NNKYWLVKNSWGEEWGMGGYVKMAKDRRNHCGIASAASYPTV

Compound	IC50
CC(=O)Nc1nc2n(n1)C(c1ccc(F)cc1)C=C(c1ccccc1)N2 (configuration not stated)	> 50 µM (inactive)
COc1ccc(OC)c(C2C(C#N)=C(N)Oc3cc(C)n(Cc4ccccn4)c(=O)c32)c1 (configuration not stated)	> 50 µM (inactive)
